According to patent publication US9708286B2, “Ingenol-3-acylates III and ingenol-3-carbamates” (LEO Laboratories Limited, priority 2010, dated 2017):
Read-outs that look alike come from different tables or passages of the source.

Experiments:
Assay type in all cases: cell-based
[1] = tested on: PMN's (polymorphonuclear leukocytes); assay: Neutrophil oxidative burst; settings: Leukocyte, 40 min, normalized to 5×10^−7 M PEP0005
Method in brief: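 Human buffy-coat neutrophils (2.5×10^5/well) in HBSS with 0.1% BSA, 5 mM glucose treated with compound premixed with 10 μM hydroethidine for 40 min at RT; fluorescence read at 485/579 nm. Normalized to 5×10^−7 M PEP0005; Rel EC50 is midway between fitted top and bottom, Abs EC50 gives 50% of PEP0005 maximum.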

[2] = tested on: Primary human epidermal keratinocytes, HeKa; assay: HeKa cytokine release (IL-8); settings: Homo sapiens, read-out: HeKa cytokine release (IL-8) Rel EC50 range
Experimental: Primary human epidermal keratinocytes, HeKa, were seeded (10.000 cells/well) in 96-well plates the day before the assay. Test compounds were diluted in DMSO (dimethyl sulfoxide) and further diluted in assay medium and pipetted into wells of 96 well-plates containing HeKa cells. The plates were incubated for 6 h at 37° C. in humidified air with 5% CO2. Plates were centrifuged briefly to spin down cells at 4° C., the supernatant was removed and analysed by Meso Scale Discovery (MSD) 4-spot cytokine assay (Pro-inflammatory II Ultra Sensitive kit, MSD, MD, USA). The MSD assay employs a sandwich immunoassay format where capture antibodies are coated in a patterned array on the bottom of the wells of a 4-Spot-Multi-MSD plate. Standard samples were incubated in the MULTI-SPOT plates as well, and the cytokine (IL-8) binds to its corresponding capture antibody spot. The cytokine level was quantitated on a SECTOR™ Imager using a cytokine-specific Detection Antibody labelled with MSD SULFO-TAG™ reagent.
Test compound titration curves were fitted to a four-parameter sigmoidal curve after normalizing the effect of the test compound to the effect of the positive control (1.5×10^−7 M PEP0005). Rel EC50 denotes the concentration of test compound producing an effect that is midway between the fitted top and bottom.

[3] = tested on: HeLa cells; assay: Necrosis assay; settings: Homo sapiens, 0.5 h, read-out: HeLa necrosis EC50 range
Method in brief: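 HeLa cells treated with compound at 10 μM to 400 μM (final) for 30 min at 37° C., viability then measured by PrestoBlue fluorescence (ex 535/em 630 nm). Normalized to 1% DMSO and 400 μM ingenol mebutate controls; AbsEC50 from four-parameter sigmoidal fit.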

[4] = read-out: Neutrophil oxidative burst Rel EC50 range, PMN from buffy coats, 40 min at RT, hydroethidine fluorescence

| SMILES | EC50 [1, 4] [nM] | EC50 ([2]; HEKa, 6 h) [nM] | EC50 ([3]; HeLa) [µM] | EC50 ([1]; PMN from buffy coats, 40 min at RT, hydroethidine fluorescence, read-out: Neutrophil oxidative burst Rel EC50 range) [nM] | EC50 ([2]; HeKa cells, 6 h at 37° C., IL-8 by MSD assay, normalized to 1.5×10^−7 M PEP0005) [nM] | EC50 ([3]; HeLa cells, 30 min at 37° C., PrestoBlue, AbsEC50, normalized to 400 μM ingenol mebutate) [µM] |
| --- | --- | --- | --- | --- | --- | --- |
| COc1ccccc1-c1noc(C)c1C(=O)O[C@H]1C(C)=C[C@]23C(=O)[C@@H](C=C(CO)[C@@H](O)[C@]12O)[C@H]1[C@@H](C[C@H]3C)C1(C)C [Compound 519, Ingenol 3-(3-(2-methoxyphenyl)-5-methyl-isoxazole-4-carboxylate)] | < 20 | < 20 | < 150 | – | – | – |
| CC1=C[C@]23C(=O)[C@@H](C=C(CO)[C@@H](O)[C@]2(O)[C@H]1OC(=O)c1c(Cl)cnn1C)[C@H]1[C@@H](C[C@H]3C)C1(C)C [Compound 522, Ingenol 3-(4-chloro-2-methyl-pyrazole-3-carboxylate)] | < 20 | < 20 | 150 to 350 | – | – | – |
| CC1=C[C@]23C(=O)[C@@H](C=C(CO)[C@@H](O)[C@]2(O)[C@H]1OC(=O)c1ncncc1Br)[C@H]1[C@@H](C[C@H]3C)C1(C)C [Compound 523, Ingenol 3-(5-bromopyrimidine-4-carboxylate)] | 20 to 100 | > 100 | > 350 | – | – | – |
| CC1=C[C@]23C(=O)[C@@H](C=C(CO)[C@@H](O)[C@]2(O)[C@H]1OC(=O)c1ncsc1C)[C@H]1[C@@H](C[C@H]3C)C1(C)C [Compound 525, Ingenol 3-(5-methylthiazole-4-carboxylate)] | 20 to 100 | > 100 | > 350 | – | – | – |
| CC1=C[C@]23C(=O)[C@@H](C=C(CO)[C@@H](O)[C@]2(O)[C@H]1OC(=O)c1nn(C)cc1Cl)[C@H]1[C@@H](C[C@H]3C)C1(C)C [Compound 526, Ingenol 3-(4-chloro-1-methyl-pyrazole-3-carboxylate)] | 20 to 100 | > 100 | > 350 | – | – | – |
| CC1=C[C@]23C(=O)[C@@H](C=C(CO)[C@@H](O)[C@]2(O)[C@H]1OC(=O)c1sc(C)nc1C)[C@H]1[C@@H](C[C@H]3C)C1(C)C [Compound 527, Ingenol 3-(2,4-dimethylthiazole-5-carboxylate)] | < 20 | 20 to 100 | 150 to 350 | – | – | – |
| CC1=C[C@]23C(=O)[C@@H](C=C(CO)[C@@H](O)[C@]2(O)[C@H]1OC(=O)c1nc(C)oc1C)[C@H]1[C@@H](C[C@H]3C)C1(C)C [Compound 528, Ingenol 3-(2,5-dimethyloxazole-4-carboxylate)] | 20 to 100 | > 100 | > 350 | – | – | – |
| CC1=C[C@]23C(=O)[C@@H](C=C(CO)[C@@H](O)[C@]2(O)[C@H]1OC(=O)c1c(C)coc1C)[C@H]1[C@@H](C[C@H]3C)C1(C)C [Compound 529, Ingenol 3-(2,4-dimethylfuran-3-carboxylate)] | < 20 | < 20 | < 150 | – | – | – |
| CCc1noc(CC)c1C(=O)O[C@H]1C(C)=C[C@]23C(=O)[C@@H](C=C(CO)[C@@H](O)[C@]12O)[C@H]1[C@@H](C[C@H]3C)C1(C)C [Compound 530, Ingenol 3-(3,5-diethylisoxazole-4-carboxylate)] | – | – | – | < 20 | < 20 | < 150 |
| CC1=C[C@]23C(=O)[C@@H](C=C(CO)[C@@H](O)[C@]2(O)[C@H]1OC(=O)c1cccc2cc[nH]c12)[C@H]1[C@@H](C[C@H]3C)C1(C)C [Compound 531, Ingenol 3-(1H-indole-7-carboxylate)] | 20 to 100 | < 20 | < 150 | – | – | – |
| CC1=C[C@]23C(=O)[C@@H](C=C(CO)[C@@H](O)[C@]2(O)[C@H]1OC(=O)c1cc(C)nn1C(C)(C)C)[C@H]1[C@@H](C[C@H]3C)C1(C)C [Compound 532, Ingenol 3-(2-tert-butyl-5-methyl-pyrazole-3-carboxylate)] | 20 to 100 | < 20 | < 150 | – | – | – |
| CC1=C[C@]23C(=O)[C@@H](C=C(CO)[C@@H](O)[C@]2(O)[C@H]1OC(=O)c1cc(C(C)(C)C)nn1C)[C@H]1[C@@H](C[C@H]3C)C1(C)C [Compound 533, Ingenol 3-(5-tert-butyl-2-methyl-pyrazole-3-carboxylate)] | < 20 | < 20 | < 150 | – | – | – |
| CC1=C[C@]23C(=O)[C@@H](C=C(CO)[C@@H](O)[C@]2(O)[C@H]1OC(=O)c1c(C)nc2sccn12)[C@H]1[C@@H](C[C@H]3C)C1(C)C [Compound 534, Ingenol 3-(6-methylimidazo[2,1-b]thiazole-5-carboxylate)] | < 20 | < 20 | 150 to 350 | – | – | – |
| CC1=C[C@]23C(=O)[C@@H](C=C(CO)[C@@H](O)[C@]2(O)[C@H]1OC(=O)c1c(C)oc(C)c1C)[C@H]1[C@@H](C[C@H]3C)C1(C)C [Compound 536, Ingenol 3-(2,4,5-trimethylfuran-3-carboxylate)] | < 20 | < 20 | 150 to 350 | – | – | – |
| CC1=C[C@]23C(=O)[C@@H](C=C(CO)[C@@H](O)[C@]2(O)[C@H]1OC(=O)c1sccc1C)[C@H]1[C@@H](C[C@H]3C)C1(C)C [Compound 537, Ingenol 3-(3-methylthiophene-2-carboxylate)] | < 20 | < 20 | 150 to 350 | – | – | – |
| CC1=C[C@]23C(=O)[C@@H](C=C(CO)[C@@H](O)[C@]2(O)[C@H]1OC(=O)c1c(N2CCCCC2)cnn1C)[C@H]1[C@@H](C[C@H]3C)C1(C)C [Compound 538, Ingenol 3-(2-methyl-4-(1-piperidyl)pyrazole-3-carboxylate)] | < 20 | 20 to 100 | 150 to 350 | – | – | – |
| CC1=C[C@]23C(=O)[C@@H](C=C(CO)[C@@H](O)[C@]2(O)[C@H]1OC(=O)c1nc(Cl)sc1C(C)C)[C@H]1[C@@H](C[C@H]3C)C1(C)C [Compound 539, Ingenol 3-(2-chloro-5-isopropyl-thiazole-4-carboxylate)] | 20 to 100 | < 20 | < 150 | – | – | – |
| CC1=C[C@]23C(=O)[C@@H](C=C(CO)[C@@H](O)[C@]2(O)[C@H]1OC(=O)c1c(Cl)c(C)nn1C)[C@H]1[C@@H](C[C@H]3C)C1(C)C [Compound 540, Ingenol 3-(4-chloro-2,5-dimethyl-pyrazole-3-carboxylate)] | < 20 | < 20 | < 150 | – | – | – |
| CC1=C[C@]23C(=O)[C@@H](C=C(CO)[C@@H](O)[C@]2(O)[C@H]1OC(=O)c1c(C)cn(C)c1C)[C@H]1[C@@H](C[C@H]3C)C1(C)C [Compound 541, Ingenol 3-(1,2,4-trimethylpyrrole-3-carboxylate)] | < 20 | < 20 | 150 to 350 | – | – | – |
| CC1=C[C@]23C(=O)[C@@H](C=C(CO)[C@@H](O)[C@]2(O)[C@H]1OC(=O)c1c(C)cc(C)n1C)[C@H]1[C@@H](C[C@H]3C)C1(C)C [Compound 542, Ingenol 3-(1,3,5-trimethylpyrrole-2-carboxylate)] | < 20 | < 20 | < 150 | – | – | – |
| CC1=C[C@]23C(=O)[C@@H](C=C(CO)[C@@H](O)[C@]2(O)[C@H]1OC(=O)C1N(C(=O)OC(C)(C)C)CCC1(C)C)[C@H]1[C@@H](C[C@H]3C)C1(C)C (stereo partly drawn) [Compound 544, Ingenol 3-(1-tert-butyloxycarbonyl-3,3-dimethylpyrrolidine-2-carboxylate)] | > 100 | > 100 | 150 to 350 | – | – | – |
